Experiment [1] deals with synthesis of LTB4 in human whole blood. Kind of experiment: human whole blood LTB4 production inhibition assay. It is filed as cell-based. Conditions: heparinized human whole blood, calcimycin 20 μM, read-out: hWB LTB4 IC50. The method in brief:
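LTB4 levels in plasma were measured by antibody-based HTRF after heparinized human whole blood, pretreated with compound (15 min, 37° C), was challenged with 20 μM calcimycin for 30 min at 37° C.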

Experiment [2] deals with T1, recombinant human FLAP protein (Homo sapiens, UniProt P20292).
T1 construct: made in house; host or cells: Sf9 insect cells (100,000 x g membrane fraction)
T1 sequence (P20292 1-161): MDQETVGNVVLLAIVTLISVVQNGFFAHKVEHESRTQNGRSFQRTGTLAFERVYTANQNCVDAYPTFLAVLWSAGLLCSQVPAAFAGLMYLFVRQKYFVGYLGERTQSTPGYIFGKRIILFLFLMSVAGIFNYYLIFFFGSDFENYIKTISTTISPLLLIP
Kind of experiment: FLAP binding assay (Scintillation Proximity Assay, displacement of [125I]L-691,831). Conditions: recombinant human FLAP membranes, [125I]L-691,831 probe; read-out: FLAP SPA IC50. The essentials:
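Membranes came from Sf9 insect cells expressing recombinant human FLAP, collected as the 100,000×g pellet in Tris pH 7.5/MgCl2/EDTA buffer. 5 μg membrane protein was coupled to WGA SPA beads for 1 h.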
For orientation: In a scintillation proximity assay essentially only radioactivity close to the scintillant gives light.

Each structure is given as a SMILES string. Where two headings read alike, the source gives them in different places. A value given as a limit tells only on which side of the number the result lay.

As usually defined, the IC50 is the concentration at which inhibition is half-maximal. Turning to `CNc1ncc(-c2ccc(C3(c4noc(-c5cnn(C)c5)n4)CCC3)cc2)cn1` [Example 294, Methyl-[5-(4-{1-[5-(1-methyl-1H-pyrazol-4-yl)-[1,2,4]oxadiazol-3-yl]-cyclobutyl}-phenyl)-pyrimidin-2-yl]-amine], the IC50 in experiment [1] (Homo sapiens) turned out to be 35 nM; in experiment [2] it was 4.4 nM.

Regarding `CC(C)(O)Cc1nc(C2(c3ccc(-c4cnc(N)nc4)cc3)CCC2)no1` [Example 278, 1-(3-{1-[4-(2-Amino-pyrimidin-5-yl)-phenyl]-cyclobutyl}-[1,2,4]oxadiazol-5-yl)-2-methyl-propan-2-ol], the IC50 in experiment [1] (Homo sapiens) stood at 1700 nM; in experiment [2] it was 78 nM.

Regarding `Cn1cc(-c2nc(C3(c4ccc(-c5cnc(N)nc5)cc4)CC(C)(C)C3)no2)cn1` [Example 123, 5-(4-{3,3-Dimethyl-1-[5-(1-methyl-1H-pyrazol-4-yl)-1,2,4-oxadiazol-3-yl]-cyclobutyl}-phenyl)-pyrimidin-2-ylamine], the IC50 is 1500 nM in experiment [1] (Homo sapiens) and 35 nM in experiment [2].

On to `COCCn1cccc(-c2nc(C3(c4ccc(-c5cnc(N)nc5)cc4)CCC3)no2)c1=O` [Example 66, 3-(3-{1-[4-(2-Amino-pyrimidin-5-yl)-phenyl]-cyclobutyl}-1,2,4-oxadiazol-5-yl)-1-(2-methoxy-ethyl)-1H-pyridin-2-one], for which the IC50 in experiment [1] (Homo sapiens) stood at 120 nM; in experiment [2] it was 8.4 nM.

As for `N#CC1CCN(c2nc(C3(c4ccc(-c5cnc(N)nc5)cc4)CCC3)no2)CC1` [Example 291, 1-(3-{1-[4-(2-Amino-pyrimidin-5-yl)-phenyl]-cyclobutyl}-[1,2,4]oxadiazol-5-yl)-piperidine-4-carbonitrile], the IC50 is 210 nM in experiment [1] (Homo sapiens) and 19 nM in experiment [2].

With `Nc1ncc(-c2ccc(C3(c4noc(-c5ccc(N6CCNCC6)cc5)n4)CCC3)cc2)cn1` [Example 104], the IC50 in experiment [1] (Homo sapiens) was found to be 99 nM; in experiment [2], 1.3 nM.

Regarding `CS(=O)(=O)N1CCN(c2ccc(-c3nc(C4(c5ccc(-c6cnc(N)nc6)cc5)CCC4)no3)cn2)CC1` [Example 109, 5-[4-(1-{5-[6-(4-Methanesulfonyl-piperazin-1-yl)-pyridin-3-yl]-1,2,4-oxadiazol-3-yl}-cyclobutyl)-phenyl]-pyrimidin-2-ylamine], the IC50 was found to be 98 nM in experiment [1] (Homo sapiens) and 1.3 nM in experiment [2].

For `Nc1ncc(-c2ccc(C3(c4noc(-c5ccc(C(=O)N6CCC(O)C6)nc5)n4)CCC3)cc2)cn1` (stereo not drawn) [Example 60, [5-(3-{1-[4-(2-Amino-pyrimidin-5-yl)-phenyl]-cyclobutyl]-1,2,4-oxadiazol-5-yl)-pyridin-2-yl]-(3-hydroxy-pyrrolidin-1-yl)-methanone], the IC50 in experiment [1] (Homo sapiens) was 150 nM; in experiment [2], 4.7 nM.

As for `Cc1ccc(C(=O)Nc2nc(C3(c4ccc(-c5cnc(N)nc5)cc4)CCC3)no2)cn1` [Example 178, N-(3-{1-[4-(2-Amino-pyrimidin-5-yl)-phenyl]-cyclobutyl}-1,2,4-oxadiazol-5-yl)-6-methyl-nicotinamide], the values for the IC50 in experiment [1] (Homo sapiens) and in experiment [2] were over 5000 nM and 61 nM, respectively.

Regarding `CC(=O)NCCn1cc(-c2nc(C3(c4ccc(-c5cnc(N)nc5)cc4)CCC3)no2)cn1` [Example 229, N-{2-[4-(3-{1-[4-(2-Amino-pyrimidin-5-yl)-phenyl]-cyclobutyl}-[1,2,4]oxadiazol-5-yl)-pyrazol-1-yl]-ethyl}-acetamide], the results for the IC50 in experiment [1] (Homo sapiens) and in experiment [2] were 410 nM and 6 nM, respectively.

As to `Nc1ncc(-c2ccc(C3(c4noc(-c5cn(C6COC6)cn5)n4)CCC3)cc2)cn1` [Example 263, 5-(4-{1-[5-(1-Oxetan-3-yl-1H-imidazol-4-yl)-[1,2,4]oxadiazol-3-yl]-cyclobutyl}-phenyl)-pyrimidin-2-ylamine], the values for the IC50 in experiment [1] (Homo sapiens) and in experiment [2] were 190 nM and 16 nM, respectively.

Take `Nc1ncc(-c2ccc(C3(c4noc(-c5ccc(Cl)nc5)n4)CCC3)cc2)cn1` [Example 101, 5-(4-{1-[5-(6-Chloro-pyridin-3-yl)-1,2,4-oxadiazol-3-yl]-cyclobutyl}-phenyl)-pyrimidin-2-ylamine]: the IC50 was found to be 250 nM in experiment [1] (Homo sapiens) and 3.3 nM in experiment [2].

Regarding `Nc1ncc(-c2ccc(C3(c4noc(N5CCCC(CO)C5)n4)CCC3)cc2)cn1` (stereo not drawn) [Example 286, [1-(3-{1-[4-(2-Amino-pyrimidin-5-yl)-phenyl]-cyclobutyl}-[1,2,4]oxadiazol-5-yl)-piperidin-3-yl]-methanol], the IC50 in experiment [1] (Homo sapiens) is 200 nM; in experiment [2], 14 nM.

For the molecule `Nc1ncc(-c2ccc(C3(c4noc(-c5cccc(F)c5)n4)CCC3)cc2)cn1` [Example 52, 5-(4-{1-[5-(3-Fluoro-phenyl)-1,2,4-oxadiazol-3-yl]-cyclobutyl}-phenyl)-pyrimidin-2-ylamine], the results for the IC50 in experiment [1] (Homo sapiens) and in experiment [2] were 780 nM and 4.3 nM, respectively.

As to `Nc1ncc(-c2ccc(C3(c4noc(-c5cnn(CC(=O)NC6CC6)c5)n4)CCC3)cc2)cn1` [Example 132, 2-[4-(3-{1-[4-(2-Amino-pyrimidin-5-yl)-phenyl]-cyclobutyl}-1,2,4-oxadiazol-5-yl)-pyrazol-1-yl]-N-cyclopropyl-acetamide], the IC50 in experiment [1] (Homo sapiens) was determined as 69 nM; in experiment [2] it was 2.8 nM.

For the molecule `CC(=O)N1CCN(CCn2cc(-c3nc(C4(c5ccc(-c6cnc(N)nc6)cc5)CCC4)no3)cn2)CC1` [Example 250, 1-(4-{2-[4-(3-{1-[4-(2-Amino-pyrimidin-5-yl)-phenyl]-cyclobutyl}-[1,2,4]oxadiazol-5-yl)-pyrazol-1-yl]-ethyl}-piperazin-1-yl)-ethanone], the IC50 in experiment [1] (Homo sapiens) was determined as 220 nM; in experiment [2] it was 8.6 nM.

For `Nc1ncc(-c2ccc(C3(c4noc(-c5cccnc5)n4)CCC3)cc2)cn1` [Example 143, 5-{4-[1-(5-pyridin-3-yl-1,2,4-oxadiazol-3-yl)-cyclobutyl]-phenyl}-pyrimidin-2-ylamine], the values for the IC50 in experiment [1] (Homo sapiens) and in experiment [2] were 250 nM and 2.2 nM, respectively.

As to `Nc1ncc(-c2ccc(C3(c4noc(C5CCCCN5)n4)CCC3)cc2)cn1` (stereo not drawn) [Example 283, 5-{4-[1-(5-Piperidin-2-yl-[1,2,4]oxadiazol-3-yl)-cyclobutyl]-phenyl}-pyrimidin-2-ylamine], the values for the half-inhibitory concentration (IC50) in experiment [1] (Homo sapiens) and in experiment [2] were 1400 nM and 60 nM, respectively.

On to `CCN(CC)C(=O)n1cc(-c2nc(C3(c4ccc(-c5cnc(N)nc5)cc4)CCC3)no2)cn1` [Example 211, 4-(3-{1-[4-(2-Amino-pyrimidin-5-yl)-phenyl]-cyclobutyl}-[1,2,4]oxadiazol-5-yl)-pyrazole-1-carboxylic acid diethylamide], for which the IC50 in experiment [1] (Homo sapiens) was 89 nM; in experiment [2], 3 nM.

For `COCCN(C)C(=O)Cn1cc(-c2nc(C3(c4ccc(-c5cnc(N)nc5)cc4)CCC3)no2)cn1` [Example 241, 2-[4-(3-{1-[4-(2-Amino-pyrimidin-5-yl)-phenyl]-cyclobutyl}-[1,2,4]oxadiazol-5-yl)-pyrazol-1-yl]-N-(2-methoxy-ethyl)-N-methyl-acetamide], the IC50 in experiment [1] (Homo sapiens) was found to be 140 nM; in experiment [2], 3.5 nM.

Consider `Cc1ccc(-c2nc(C3(c4ccc(-c5cnc(N)nc5)cc4)CCC3)no2)cc1` [Example 35, 5-{4-[1-(5p-Tolyl-1,2,4-oxadiazol-3-yl)-cyclobutyl]-phenyl}-pyrimidin-2-ylamine], for which the IC50 is 600 nM in experiment [1] (Homo sapiens) and 3.6 nM in experiment [2].

In the case of `Nc1ncc(-c2ccc(C3(c4noc(-c5c[nH]nn5)n4)CCC3)cc2)cn1` [Example 40, 5-(4-{1-[5-(1H-1,2,3-Triazol-4-yl)-1,2,4-oxadiazol-3-yl]-cyclobutyl}-phenyl)-pyrimidin-2-ylamine], the IC50 is 2100 nM in experiment [1] (Homo sapiens) and 4.7 nM in experiment [2].

Consider `COCCNc1cc(-c2nc(C3(c4ccc(-c5cnc(N)nc5)cc4)CCC3)no2)ccn1` [Example 97, 5-[4-(1-{5-[2-(2-Methoxy-ethylamino)-pyridin-4-yl]-1,2,4-oxadiazol-3-yl}-cyclobutyl)-phenyl]-pyrimidin-2-ylamine], for which the figures for the IC50 in experiment [1] (Homo sapiens) and in experiment [2] were 92 nM and 2.9 nM, respectively.

For the molecule `CCN(C)C(=O)Cn1cc(-c2nc(C3(c4ccc(-c5cnc(N)nc5)cc4)CCC3)no2)cn1` [Example 206, 2-[4-(3-{1-[4-(2-Amino-pyrimidin-5-yl)-phenyl]-cyclobutyl}-[1,2,4]oxadiazol-5-yl)-pyrazol-1-yl]-N-ethyl-N-methyl-acetamide], the IC50 worked out at 38 nM in experiment [1] and 4.3 nM in experiment [2].

Take `CN(C)CCN(C)c1cnc(-c2nc(C3(c4ccc(-c5cnc(N)nc5)cc4)CCC3)no2)cn1` [Example 271, N-[5-(3-{1-[4-(2-Amino-pyrimidin-5-yl)-phenyl]-cyclobutyl}-[1,2,4]oxadiazol-5-yl)-pyrazin-2-yl]-N,N′,N′-trimethyl-ethane-1,2-diamine]: the figures for the IC50 in experiment [1] (Homo sapiens) and in experiment [2] were 44 nM and 5.3 nM, respectively.

For the molecule `N#CCn1cc(-c2nc(C3(c4ccc(-c5cnc(N)nc5)cc4)CCC3)no2)cn1` [Example 238, [4-(3-{1-[4-(2-Amino-pyrimidin-5-yl)-phenyl]-cyclobutyl}-[1,2,4]oxadiazol-5-yl)-pyrazol-1-yl]-acetonitrile], the IC50 in experiment [1] (Homo sapiens) was found to be 37 nM; in experiment [2], 1 nM.

For the molecule `CN(CC1CCOCC1)c1nc(C2(c3ccc(-c4cnc(N)nc4)cc3)CCC2)no1` [Example 292, 5-[4-(1-{5-[Methyl-(tetrahydro-pyran-4-ylmethyl)-amino]-[1,2,4]oxadiazol-3-yl}-cyclobutyl)-phenyl]-pyrimidin-2-ylamine], the IC50 in experiment [1] (Homo sapiens) turned out to be 330 nM; in experiment [2], 22 nM.
